Results taken from patent publication US5036097A, “Phenylbutyl nitrone compositions and methods for prevention of gastric ulceration” (Oklahoma Medical Research Foundation, priority 1990, dated 1991).

Legend:
[1] = continuous i.v. administration toxicity in gerbils; assay type: in vivo; conditions: 50 mg/kg/hr for a total of 48 hr
Description: (§1) In vivo toxicity tests have indicated the following. […] An LD50 has yet to be determined because of the lack of toxicity.

[2] = acute i.v. toxicity in gerbils; assay type: in vivo; conditions: 10 to 300 mg/kg i.v., injected within 60 seconds
Description: as §1

[3] = pH stability of PBN; assay type: physicochemical; conditions: degrades at pH less than approximately
[4] = pharmacokinetic studies, plasma half-life; assay type: in vivo; conditions: rat; limited pharmacokinetic studies
Description: Limited pharmokinetic studies indicate that the plasma half-life in the rat is three to four hours.

[5] = system: piroxicam-induced gastric ulcers; experiment: suppression of piroxicam-induced gastric ulcers by interventions (PBN, free radical scavengers, ascorbate); assay type: in vivo, rat (male Sprague-Dawley)
Protocol: FIG. 2 is a graph of % control ulceration from piroxicam versus the % ulceration in the presence of free radical scavengers. The […] scavenger dimethylthiourea (DMTU, 500 mg/kg i.p.) was given 24 hours and 1 hour before piroxicam. […] The antioxidant butylated hydroxytoluene (BHT, 25 mg/kg/day i.p. in corn oil) was given for three days before and again 1 hour before piroxicam. The % control ulceration is determined by averaging the ratios of cm^2 ulceration in control stomachs from rats given piroxicam alone, and multiplying×100. +P< 0.01 compared to piroxicam alone.
(§2) Male Sprague-Dawley rats (Charles River, Wilmington, Mass.) weighing 300-325 g were housed individually in wire bottomed cages to prevent ingestion of hair and feces. Animals were maintained without food for 48 hours and without water for 24 hours prior to each experiment. Piroxicam or aspirin and other NSAIDS were suspended in a vehicle of 1% carboxymethylcellulose, 0.1% Tween 80 and 0.15 M HCl, and administered in a volume of 1 ml on the morning of study by oral gavage using an 18 gauge curved blunt needle (Popper and Sons, New Hyde Park, N.Y.). One ml of vehicle alone was administered for control experiments. HCl was added to the vehicle to insure an acid environment in the stomach in all studies. […] Four hours after the administration of NSAID or vehicle, rats were euthanized with sodium pentobarbital (100 mg/kg IP), and the surface area of ulceration per stomach was quantitated using morphometric techniques. Stomachs were removed, the lumen was exposed by an incision along the radius of greater curvature, and the stomach was washed in phosphate buffered saline. The luminal surface was laid out on a flat surface with gross folds removed by gentle distension. The percentage of surface involved with submucosal hemorrhage was then determined by point counting, as described by Weibel, E. R. Stereological Methods: Practical Methods for Biological Morphometry. Academic Press, New York 1980. This was done by tabulation of the percentage of points over ulcerations using a point counting eyepiece graticle (16×16 points in a square format). At the 12X magnification used on the Wild dissecting microscope (Wild-Heerbrugg, Basel, Switzerland), the graticle covered a 1 cm^2 area of the surface. Four to five non-overlapping sampling sites were taken to fully cover the exposed surface. To determine the total luminal surface area, the outline of the outer boundary of the stomach was traced using a transparent acetate sheet, and the area was determined from planimetry. The surface area of ulcerated regions per stomach was then determined by multiplying the surface density of ulceration regions by the luminal surface area of the stomach.
Differences in total luminal surface area in cm^2, surface area of ulcerated regions per stomach and biochemical analyses between each treatment intervention and its corresponding untreated control group are compared using the Mann-Whitney U Test, Dixon, W. J., Massey, F. J., Jr. Introduction to statistical methods, 4th edition. (New York: McGraw Hill, 1983). […] In vitro studies are compared using the Student's unpaired T-test, Dixon, W. J., Massey, F. J., Jr. Introduction to statistical methods, 4th edition. (New York: McGraw Hill, 1983). Values are expressed as mean±SEM. Significance is assumed when P<0.05.
In each experiment, the surface area of gastric ulceration produced by piroxicam in 15 treated rats was compared to that in 15 rats of the same age and size that were fasted simultaneously but which received no intervention. Phenylbutyl nitrone (30 mg/kg) was given orally in water 1 hour before piroxicam and also added to vehicle when piroxicam was administered. When intervention were given with piroxicam, the pH of the final mixture was adjusted if necessary to equal that of piroxicam and vehicle alone.

[6] = previous studies, standard techniques; cited from earlier work
[7] = bioavailability / distribution estimate; assay type: in vivo
[8] = in vivo acute toxicity in rodents; conditions: doses up to 3 g/kg in rodents
Description: as §1

[9] = system: gastric ulceration; experiment: NSAID-induced gastric ulceration in rats (surface area of ulceration); assay type: in vivo, rat (male Sprague-Dawley); conditions: aspirin 200, diflunisal 125, naproxen 150, ibuprofen 230 mg/kg; oral gavage, 4 h
Protocol: as §2, with “Animals were maintained without food for 48 hours and without water for 24 hours prior to each experiment.” left out, “Academic Press, New York 1980.” left out
Differences in total luminal surface area in cm^2, surface area of ulcerated regions per stomach and biochemical analyses between each treatment intervention and its corresponding untreated control group are compared using the Mann-Whitney U Test, Dixon, W. J., Massey, F. J., Jr. Introduction to statistical methods, 4th edition. […] In vitro studies are compared using the Student's unpaired T-test, Dixon, W. J., Massey, F. J., Jr. Introduction to statistical methods, 4th edition. […] Values are expressed as mean±SEM. Significance is assumed when P<0.05.
Phenyl N-tert-butyl nitrone is obtained from Aldrich Chemicals, Milwaukee, Wis. All other chemicals and pharmaceuticals are from Sigma Chemical.

[10] = system: isolated perfused gastric mucosa; conditions: cited from earlier work

With `CC(C)(C)[N+]([O-])=Cc1ccccc1` [PBN, N-tert-Butyl-α-phenylnitrone] the “adverse effect, continuous i.v. administration” value [1] was “no adverse effect”, the “acute toxic effects, i.v.” value [2] was “no acute toxic effects” and the “pH below which PBN degrades” value [3] was 3 to 4 pH. The plasma half-life [4] was “three to four”, the ulcerations/unit area ([5]; piroxicam 23 mg/kg only, or plus PBN 30 mg/kg orally 1 hour before and with piroxicam, p<0.0052) was 0.077±0.104 ulcerations/unit area and the “inhibition of piroxicam-induced ulcers, in words” value ([5]; piroxicam 23 mg/kg, FIG. 2) was “markedly inhibited”. For the same molecule, the mutagenicity [6] was “not mutagenic”, the Kp ([7]; brain, read-out: brain level as % of the plasma concentration) was 0.8 and the “distribution, in words” value ([7]; in vivo) was “widely available throughout the body and is able to cross all of the barriers to distribution, including the blood brain barrier”. The “adverse effects, acute doses” value [8] was “no adverse effects”.

With `O=C1O[C@H]([C@@H](O)CO)C(O)=C1O` [ascorbate] the “increase in ulceration compared to control stomachs treated with piroxicam alone” value ([5]; ascorbate plus piroxicam, P<0.001) was “over 600%” and the “ulceration (ascorbate experiment)” value ([5]; ascorbate-treated stomachs (with piroxicam) vs piroxicam alone, P<0.001) was 0.194±0.039 cm^2.

For `CC(=O)Oc1ccccc1C(=O)O` [aspirin], the “gastric ulceration caused by NSAID” value [9] is given as 0.972±0.318 cm^2 and the “mucosal adenosine triphosphate (ATP) and phosphocreatine (PC)” value [10] is given as “decreases mucosal adenosine triphosphate (ATP) and phosphocreatine (PC)”.

In the case of `O=C(O)c1cc(-c2ccc(F)cc2F)ccc1O` [diflunisal], the “gastric ulceration caused by NSAID” value [9] is reported as 0.597±0.103 cm^2.

In the case of `CC(C)Cc1ccc(C(C)C(=O)O)cc1` (centres unmarked) [ibuprofen], the “gastric ulceration caused by NSAID” value [9] is reported as 0.644±0.110 cm^2.

With `COc1ccc2cc([C@H](C)C(=O)O)ccc2c1` [naproxen] the “gastric ulceration caused by NSAID” value [9] was 0.370±0.056 cm^2.
